This assay is described as follows: Inhibition of human recombinant SAHH at 1000 uM.

With `Nc1ncnc2c1ncn2[C@@H]1CC[C@@H](O)[C@H]1O` [(1R,2S,3R)-3-(6-amino-9H-purin-9-yl)cyclopentane-1,2-diol], the IC50 (in general, the midpoint of a concentration-inhibition curve) is 18 µM.

The values above are taken from BindingDB's records for doi:10.1016/j.bmcl.2008.03.029 (Gifu University, 2008).
